Measured values as given in the NIST ThermoML archive (doi:10.1021/acs.jced.7b00347).

Experiment: mn = molality of the nth substance listed, in mol/kg
Details: for surface tension liquid-gas: Ring tensiometer; for electrical conductivity: 100 kPa, Liquid, Alternating current cell with electrodes

CCCCCCCC[NH+](CCO)CC(C)O.[Cl-] (centres undefined) + O
Details	electrical conductivity [S/m]	surface tension liquid-gas [mN/m]
293.15 K, m1 = 1.867e-05	–	62.99
293.15 K, m1 = 1.87e-05	0.00057	–
293.15 K, m1 = 3.733e-05	–	56.87
293.15 K, m1 = 3.99e-05	0.000652	–
293.15 K, m1 = 6.12e-05	0.000733	–
293.15 K, m1 = 8.25e-05	0.000815	–
293.15 K, m1 = 9.334e-05	–	47.51
293.15 K, m1 = 0.0001038	0.000896	–
293.15 K, m1 = 0.0001251	0.000978	–
293.15 K, m1 = 0.0001464	0.00106	–
293.15 K, m1 = 0.0001676	0.00114	–
293.15 K, m1 = 0.0001867	–	40.52
293.15 K, m1 = 0.0001889	0.00122	–
293.15 K, m1 = 0.0002102	0.0013	–
293.15 K, m1 = 0.0002315	0.00138	–
293.15 K, m1 = 0.0002528	0.00147	–
293.15 K, m1 = 0.000274	0.00155	–
293.15 K, m1 = 0.00028	–	36.28
293.15 K, m1 = 0.0002953	0.00163	–
293.15 K, m1 = 0.0003166	0.00171	–
293.15 K, m1 = 0.0003379	0.00179	–
293.15 K, m1 = 0.0003592	0.00187	–
293.15 K, m1 = 0.0003734	–	33.31
293.15 K, m1 = 0.0003805	0.00196	–
293.15 K, m1 = 0.0004017	0.00204	–
293.15 K, m1 = 0.000423	0.00212	–
293.15 K, m1 = 0.0004436	–	31.33
293.15 K, m1 = 0.0004443	0.0022	–
293.15 K, m1 = 0.0004687	0.00226	–
293.15 K, m1 = 0.0004932	0.00233	–
293.15 K, m1 = 0.0005177	0.00239	–
293.15 K, m1 = 0.0005421	0.00246	–
293.15 K, m1 = 0.0005666	0.00252	–
293.15 K, m1 = 0.000591	0.00259	–
293.15 K, m1 = 0.0006155	0.00266	–
293.15 K, m1 = 0.0006399	0.00272	–
293.15 K, m1 = 0.0006644	0.00279	–
293.15 K, m1 = 0.0006888	0.00285	–
293.15 K, m1 = 0.0007133	0.00292	–
293.15 K, m1 = 0.0007378	0.00298	–
293.15 K, m1 = 0.0007622	0.00305	–
293.15 K, m1 = 0.0007867	0.00312	–
293.15 K, m1 = 0.0008111	0.00318	–
293.15 K, m1 = 0.0008356	0.00325	–
293.15 K, m1 = 0.00086	0.00331	–
293.15 K, m1 = 0.0008845	0.00338	–
293.15 K, m1 = 0.0009089	0.00345	–
293.15 K, m1 = 0.0009334	0.00352	30.74
293.15 K, m1 = 0.001867	–	30.15
293.15 K, m1 = 0.0028	–	29.89
293.15 K, m1 = 0.003733	–	30
298.15 K, m1 = 1.867e-05	–	58.01
298.15 K, m1 = 1.87e-05	0.00071	–
298.15 K, m1 = 3.733e-05	–	52.03
298.15 K, m1 = 3.79e-05	0.000793	–
298.15 K, m1 = 5.71e-05	0.000877	–
298.15 K, m1 = 7.64e-05	0.00096	–
298.15 K, m1 = 9.334e-05	–	43.52
298.15 K, m1 = 9.56e-05	0.00104	–
298.15 K, m1 = 0.0001148	0.00113	–
298.15 K, m1 = 0.000134	0.00121	–
298.15 K, m1 = 0.0001533	0.00129	–
298.15 K, m1 = 0.0001725	0.00138	–
298.15 K, m1 = 0.0001867	–	36.81
298.15 K, m1 = 0.0001917	0.00146	–
298.15 K, m1 = 0.0002109	0.00154	–
298.15 K, m1 = 0.0002302	0.00163	–
298.15 K, m1 = 0.0002494	0.00171	–
298.15 K, m1 = 0.0002686	0.00179	–
298.15 K, m1 = 0.00028	–	33.44
298.15 K, m1 = 0.0002879	0.00188	–
298.15 K, m1 = 0.0003071	0.00196	–
298.15 K, m1 = 0.0003263	0.00204	–
298.15 K, m1 = 0.0003455	0.00213	–
298.15 K, m1 = 0.0003648	0.00221	–
298.15 K, m1 = 0.000384	0.0023	–
298.15 K, m1 = 0.0004032	0.00238	–
298.15 K, m1 = 0.0004088	–	30.57
298.15 K, m1 = 0.0004364	0.00249	–
298.15 K, m1 = 0.0004695	0.0026	–
298.15 K, m1 = 0.0005026	0.00271	–
298.15 K, m1 = 0.0005358	0.00282	–
298.15 K, m1 = 0.0005689	0.00294	–
298.15 K, m1 = 0.000602	0.00305	–
298.15 K, m1 = 0.0006352	0.00316	–
298.15 K, m1 = 0.0006683	0.00327	–
298.15 K, m1 = 0.0007014	0.00338	–
298.15 K, m1 = 0.0007346	0.00349	–
298.15 K, m1 = 0.0007677	0.00361	–
298.15 K, m1 = 0.0008009	0.00372	–
298.15 K, m1 = 0.000834	0.00383	–
298.15 K, m1 = 0.0008671	0.00394	–
298.15 K, m1 = 0.0009003	0.00405	–
298.15 K, m1 = 0.0009334	0.00417	29.9
298.15 K, m1 = 0.001867	–	29.43
298.15 K, m1 = 0.0028	–	29
298.15 K, m1 = 0.003733	–	28.91
303.15 K, m1 = 1.867e-05	–	53.53
303.15 K, m1 = 1.87e-05	0.00091	–
303.15 K, m1 = 3.73e-05	0.00101	–
303.15 K, m1 = 3.733e-05	–	47.58
303.15 K, m1 = 5.6e-05	0.0011	–
303.15 K, m1 = 7.47e-05	0.0012	–
303.15 K, m1 = 9.33e-05	0.00129	–
303.15 K, m1 = 9.334e-05	–	40.08
303.15 K, m1 = 0.000112	0.00139	–
303.15 K, m1 = 0.0001307	0.00149	–
303.15 K, m1 = 0.0001493	0.00158	–
303.15 K, m1 = 0.000168	0.00168	–
303.15 K, m1 = 0.0001867	0.00177	34.17
303.15 K, m1 = 0.0002053	0.00187	–
303.15 K, m1 = 0.000224	0.00197	–
303.15 K, m1 = 0.0002427	0.00206	–
303.15 K, m1 = 0.0002614	0.00216	–
303.15 K, m1 = 0.00028	0.00225	31.17
303.15 K, m1 = 0.0002987	0.00235	–
303.15 K, m1 = 0.0003174	0.00245	–
303.15 K, m1 = 0.000336	0.00254	–
303.15 K, m1 = 0.0003472	–	29.47
303.15 K, m1 = 0.0003547	0.00264	–
303.15 K, m1 = 0.0003734	0.00273	–
303.15 K, m1 = 0.000392	0.00283	–
303.15 K, m1 = 0.0004166	0.00292	–
303.15 K, m1 = 0.0004412	0.00302	–
303.15 K, m1 = 0.000448	–	29.31
303.15 K, m1 = 0.0004658	0.00311	–
303.15 K, m1 = 0.0004905	0.00321	–
303.15 K, m1 = 0.0005151	0.0033	–
303.15 K, m1 = 0.0005397	0.0034	–
303.15 K, m1 = 0.0005643	0.00349	–
303.15 K, m1 = 0.0005889	0.00359	–
303.15 K, m1 = 0.0006135	0.00368	–
303.15 K, m1 = 0.0006381	0.00378	–
303.15 K, m1 = 0.0006627	0.00387	–
303.15 K, m1 = 0.0006873	0.00397	–
303.15 K, m1 = 0.0007119	0.00406	–
303.15 K, m1 = 0.0007365	0.00416	–
303.15 K, m1 = 0.0007611	0.00425	–
303.15 K, m1 = 0.0007857	0.00435	–
303.15 K, m1 = 0.0008104	0.00444	–
303.15 K, m1 = 0.000835	0.00454	–
303.15 K, m1 = 0.0008596	0.00463	–
303.15 K, m1 = 0.0008842	0.00473	–
303.15 K, m1 = 0.0009088	0.00482	–
303.15 K, m1 = 0.0009334	0.00492	28.79
303.15 K, m1 = 0.001867	–	28.54
303.15 K, m1 = 0.0028	–	28.22
303.15 K, m1 = 0.003733	–	28.02
308.15 K, m1 = 1.867e-05	–	51.25
308.15 K, m1 = 1.87e-05	0.00111	–
308.15 K, m1 = 3.733e-05	–	45.75
308.15 K, m1 = 4.28e-05	0.00126	–
308.15 K, m1 = 6.7e-05	0.00141	–
308.15 K, m1 = 9.11e-05	0.00156	–
308.15 K, m1 = 9.334e-05	–	38.42
308.15 K, m1 = 0.0001152	0.00171	–
308.15 K, m1 = 0.0001394	0.00186	–
308.15 K, m1 = 0.0001635	0.00201	–
308.15 K, m1 = 0.0001867	–	32.93
308.15 K, m1 = 0.0001877	0.00216	–
308.15 K, m1 = 0.0002118	0.00231	–
308.15 K, m1 = 0.000236	0.00246	–
308.15 K, m1 = 0.0002601	0.00261	–
308.15 K, m1 = 0.0002842	0.00276	–
308.15 K, m1 = 0.0002949	–	29.72
308.15 K, m1 = 0.0003084	0.00291	–
308.15 K, m1 = 0.0003325	0.00306	–
308.15 K, m1 = 0.0003472	–	28.63
308.15 K, m1 = 0.0003567	0.00321	–
308.15 K, m1 = 0.0003808	0.00336	28.46
308.15 K, m1 = 0.0004099	0.00348	–
308.15 K, m1 = 0.000439	0.0036	–
308.15 K, m1 = 0.0004681	0.00373	–
308.15 K, m1 = 0.0004972	0.00385	–
308.15 K, m1 = 0.0005262	0.00397	–
308.15 K, m1 = 0.0005553	0.0041	–
308.15 K, m1 = 0.0005844	0.00422	–
308.15 K, m1 = 0.0006135	0.00434	–
308.15 K, m1 = 0.0006426	0.00447	–
308.15 K, m1 = 0.0006716	0.00459	–
308.15 K, m1 = 0.0007007	0.00471	–
308.15 K, m1 = 0.0007298	0.00483	–
308.15 K, m1 = 0.0007589	0.00496	–
308.15 K, m1 = 0.000788	0.00508	–
308.15 K, m1 = 0.0008171	0.0052	–
308.15 K, m1 = 0.0008461	0.00533	–
308.15 K, m1 = 0.0008752	0.00545	–
308.15 K, m1 = 0.0009043	0.00557	–
308.15 K, m1 = 0.0009334	0.0057	27.95
308.15 K, m1 = 0.001867	–	27.78
308.15 K, m1 = 0.0028	–	27.44
308.15 K, m1 = 0.003733	–	27.36
